Results: BindingDB's records for doi:10.1021/acs.biochem.6b00786 (University of California Irvine, 2016)

Tests used:
[1] = molecular target: Nitric oxide synthase oxygenase [E25A,E26A,E316A] (Bacillus subtilis, UniProt O34453, E25A/E26A/E316A); assay: bBiDomain assay
Method: (§1) Reactions were carried out using the buffered solution reported for the three-component reaction. The bBiDomain reactions included 100 nm bBiDomain and either YumC or FLDR at 1 μm; except for reactions in which YumC concentrations were varied. For inhibition assays, inhibitors were added at 30 μm. Similar to the three-component reaction, bBiDomain reactions were initiated with NADPH at a final concentration of 400 μm, quenched by thermal denaturation, and analyzed by Griess reaction.

[2] = molecular target: Nitric oxide synthase oxygenase [E25A,E26A,I218V,E316A] (Bacillus subtilis, UniProt O34453, E25A/E26A/E316A/I218V); assay: bBiDomain assay
Method: as §1

With `Cc1cc(N)nc2ccccc12` the IC50 [1] was 36.6 µM and the IC50 [2] was 53.3 µM.
